The text below walks through data of patent US20230312646A1, “ANTIBACTERIAL PEPTIDES” (priority 2020, published 2023).

Test [1] concerns the target T1, Escherichia coli SC (^EcSC) (Escherichia coli, UniProt P0A988).
T1 construct: His tag (inferred from the pET15b vector and Ni-NTA purification) (N); made in house; host or cells: E. coli
As to the kind of experiment: biochemical. It is filed as binding. As for the experimental part: The procedure has been described previously (Wolff, P.; Oliéric, V.; Briand, J. P.; Chaloin, O.; Dejaegere, A.; Dumas, P.; Ennifar, E.; Guichard, G.; Wagner, J.; Burnouf, D. Y., Structure-Based Design of Short Peptide Ligands Binding onto the E. coli Processivity Ring. J. Med. Chem. 2011, 54 (13), 4627-4637). Briefly, E.coli cells were transformed with plasmids pET15b containing the dnaN gene from E. coli and were grown in LB at 37° C. to OD 0.5, then induced by IPTG (0.1 mM) at 28° C. overnight. dnaN proteins fractions were first enriched on a Ni-NTA column, eluted with a histidine step (300 mM) and further purified on a Source Q column in buffer containing 20 mM Tris HCI pH 7.5, 0.5 mM EDTA and 10% (v/v) glycerol, using a gradient from 0 to 0.5 M NaCl. After a final ultracentrifugation (45 K, 1 h, 20° C.), soluble proteins were concentrated on a Centricon 30 K (Millipore) in the same buffer and stored at 4° C. in 2 M ammonium sulfate. Buffer exchange was performed on Centrikon 10 K at 4° C. before use and protein quality was assessed by DLS.
(§1) ITC experiments were performed using an iTC200 or a PEAQ-ITC instrument (Microcal Malvern Panalytical). Peptides (300 or 600 µM) were titrated at 25° C. by sequential injections (usually 2 µl each) into an SC solution (30 or 60 µM). Data were corrected for heat of injection by subtracting the signal of the titration of peptides into proteiN-free buffer solution (Hepes 10 mM pH 7.4, NaCl 0.15 M, EDTA 3 mM). Each titration was performed at least twice. Analyses of experimental data were performed following a classical treatment with the AFFINImeter software (https://www.affinimeter.com; S4S, Santiago de Compostela, Spain). In addition, kinetic information was obtained in some cases with kinITC as implemented in the software AFFINImeter.
All newly synthesized peptides were tested for their interaction with ^EcSC by ITC at 25° C. As a general rule, all thermodynamic profiles reveal an exothermic interaction, and a non-favorable entropic component. The resulting negative Gibb’s free energies characterize a spontaneous interaction. The analysis of raw data by the Affinimeter® software also gave access to kinetics rate constant of the interaction.

The target in test [2] is T2, clamps from Pseudomonas aeruginosa (^PaSC) (Pseudomonas aeruginosa, UniProt Q9I7C4).
T2 construct: made in house
T2 sequence (Q9I7C4 whole entry): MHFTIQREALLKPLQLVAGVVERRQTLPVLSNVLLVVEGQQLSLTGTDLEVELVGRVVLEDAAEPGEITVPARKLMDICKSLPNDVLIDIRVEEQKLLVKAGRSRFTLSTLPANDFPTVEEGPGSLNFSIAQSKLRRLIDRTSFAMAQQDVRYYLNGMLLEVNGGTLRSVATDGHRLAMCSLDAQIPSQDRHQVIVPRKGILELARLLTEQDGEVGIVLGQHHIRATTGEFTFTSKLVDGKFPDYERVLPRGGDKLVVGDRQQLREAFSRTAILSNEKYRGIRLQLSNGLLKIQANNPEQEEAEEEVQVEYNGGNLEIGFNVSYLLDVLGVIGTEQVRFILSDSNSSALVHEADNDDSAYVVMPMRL
As to the kind of experiment: ITC of peptides with P. aeruginosa clamp. The class given is binding. As for the experimental part: as §1
(§2) Protein quality was assessed by DLS. The purification of clamps from other bacteria used the same procedure.
(§3) The bacterial sliding clamps present a highly conserved binding site among bacterial species. […] All these species belong to the ESKAPE group and are in the first priority bacteria list established by the World Health Organization for which new antibiotics are urgently needed.

The subject of a further test is Escherichia coli D22. As to the kind of experiment: MIC assay, E. coli. It is filed as cell-based. The settings on record: MH broth, 37° C., 18-20 hours. The method, then: (§4) Antimicrobial activity of peptide 5d was assessed through the measurement of the Minimal Inhibition Concentration (MIC). MIC assays were performed in duplicate in 96-well microtiter plates on the basis of the protocol recommended by the Clinical and Laboratory Standards Institute. Laboratory strains of Escherichia coli D22, Bacillus subtilis 168 and Stpaphylococcus aureus HG001were cultivated on either LB-agar plates or liquid 1x Mueller Hinton broth. Briefly, a mix of 3-4 fresh (less than 36 hours) colonies grown on LB-agar plates were inoculated in 3 ml of MH broth and incubated for about 4 h at 37° C. under agitation. Dilution of these cultures to an OD600 nm of 0.002 was made in MH broth. Within a time laps not exceeding 30 min, 50 µl of this cell suspension was added to 50 µl of MH broth (containing or not serial dilutions of the peptide 5 d in MH broth) in wells of a 96-well round bottom microwell plate (Greiner; final cell density of about 5 × 10^5 cfu/ml). Plates were incubated at 37° C. for 18-20 hours. MIC was defined as the minimal antibiotic concentration that results in no visible growth of the strain in the micotiter plate well.

For the next test, the system named is Bacillus subtilis 168. The class given is cell-based. The method, then: as §4
Test [3] deals with Stpaphylococcus aureus HG001. The class given is cell-based, S. aureus. As for the experimental part:
as §4

The target in another test is ^EcSC (Escherichia coli, UniProt P0A988). The settings on record: SPR, J. Med. Chem. 2011; read-out: Kd previously determined by SPR; cited from earlier work. (SPR reads the build-up and loss of mass on a sensor chip optically.)
Sequence of ^EcSC (P0A988 whole entry): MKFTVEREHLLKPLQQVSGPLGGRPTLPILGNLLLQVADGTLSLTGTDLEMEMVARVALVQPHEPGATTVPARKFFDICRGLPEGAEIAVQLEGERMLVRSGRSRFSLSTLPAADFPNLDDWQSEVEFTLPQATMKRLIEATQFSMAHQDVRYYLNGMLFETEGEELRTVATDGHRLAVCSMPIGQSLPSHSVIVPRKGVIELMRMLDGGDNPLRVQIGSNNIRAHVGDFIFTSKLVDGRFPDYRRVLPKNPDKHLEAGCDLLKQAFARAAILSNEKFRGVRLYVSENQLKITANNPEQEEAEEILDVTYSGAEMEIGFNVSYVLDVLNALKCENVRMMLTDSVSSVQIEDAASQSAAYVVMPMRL
The target of test [4] is clamps from Acinetobacter baumannii (^AbSC). Briefly: ITC of peptides with A. baumannii clamp. The class given is binding. To be noted: ITC at 25° C.; means of three independant experiments, standard deviations in brackets; read-out: affinities (Kd in nM), A. baumannii. The method, then: as §1, §2, §3
The mark [5] stands for this setting: Kd (nM), ITC at 298.15 K (25° C.).
Where [6] appears, read: affinities (Kd in nM), E.coli, ITC at 25° C., means of three independant experiments, standard deviations in brackets.
Setting [7] is: ITC at 25° C., means of three independant experiments, standard deviations in brackets, read-out: affinities (Kd in nM), P. aeruginosa.
Where [8] appears, read: affinities (Kd in nM), P. aeruginosa, ITC at 25° C., means of three independant experiments, standard deviations in brackets.

Like-named read-outs stand apart in the source and are kept apart here. Numbered stars: 1 amine (or outer) side, 2 acyl side, 3 side chain; on linkers, the order of the positions; unused ones are H or OH. Square brackets hold non-standard residues; d marks the D form. Peptide text beside a SMILES is read from it. * marks the point of attachment. NEtAsp = CCN([C@@H](CC(=O)[*:3])C(=O)[*:2])[*:1]; Acryloyl(3-(3-pyridyl),E) = O=C(/C=C/c1cccnc1)*; Phe(3,4-Cl2) = N[C@@H](Cc1ccc(Cl)c(Cl)c1)C(=O)O; Oic = O=C(O)[C@@H]1C[C@@H]2CCCC[C@@H]2N1; NH(4-MeO-phenyl) = COc1ccc(N*)cc1; NMeR = CN[C@@H](CCCNC(=N)N)C(=O)O; dNMeR = CN[C@H](CCCNC(=N)N)C(=O)O; Tridecanoyl = CCCCCCCCCCCCC(=O)*; Cha = N[C@@H](CC1CCCCC1)C(=O)O; NMeD = CN[C@@H](CC(=O)O)C(=O)O; NMeDab = CN[C@@H](CCN)C(=O)O; CO = O=C([*:1])[*:2]

The term kon denotes the rate constant with which the complex forms. The MIC is the lowest concentration found to suppress growth. Low readings indicate greater potency, high ones weaker potency.

T1 sequence (P0A988 whole entry): as above

As to `CC(C)C[C@H](NC(=O)[C@H](CC(=O)O)N(C)C(=O)[C@H](CC1CCCCC1)NC(=O)[C@H](CCC(N)=O)NC(=O)/C=C/c1cccnc1)C(=O)N[C@@H](Cc1ccc(Cl)c(Cl)c1)C(=O)O` [P38] ({Acryloyl(3-(3-pyridyl),E)}-Q[Cha][NMeD]L[Phe(3,4-Cl2)]-OH), the Kd in test [1] (setting [5]) is 46 nM; in test [1] (setting [6]), 45 nM; in test [2] (setting [7]) it was 120 nM; in test [2] (range over ^PaSC and ^AbSC, read-out: affinity for these clamps (^PaSC and ^AbSC)) it was 120 to 170 nM. For the same molecule, the kon in test [1] (read-out: kon (M^-1 s^-1)) was determined as 110000 M⁻¹ s⁻¹.

In the case of `CCCCCCCCCCCCC(=O)N(C)[C@H](CCCNC(=N)N)C(=O)N[C@@H](CCC(N)=O)C(=O)N[C@@H](CC1CCCCC1)C(=O)N(C)[C@@H](CCNC(C)=O)C(=O)N[C@@H](CC(C)C)C(=O)N[C@@H](Cc1ccc(Cl)c(Cl)c1)C(N)=O` [Peptide 5d] (Tridecanoyl-[dNMeR]Q[Cha][NMeDab](Ac)L[Phe(3,4-Cl2)]-NH2), in the test on Escherichia coli D22, the “MIC (µg/ml)” value was in the range of 2.3 to 4.6 µg/mL. The “MIC µM” value in the test with Escherichia coli D22 was 2 to 4 µM. The “MIC” value in the test with Bacillus subtilis 168 (168) was 4 µM; with Bacillus subtilis 168 (MH broth, 37° C., 18-20 hours), 4.6 µg/mL; in test [3] it was 4 to 8 µM; in test [3] (MH broth, 37° C., 18-20 hours) it was 4.6 to 9.2 µg/mL.

For the molecule `CC(=O)N[C@@H](CCC(N)=O)C(=O)N[C@@H](CC1CCCCC1)C(=O)N[C@@H](CC(=O)O)C(=O)N[C@@H](CC(C)C)C(=O)N[C@@H](Cc1ccccc1)C(=O)O` [P1, Ac-Gln-Cha-Asp-Leu-Phe-OH, reference compound] (Ac-Q[Cha]DLF-OH), the Kd at ^EcSC was 170 nM; in test [1] (setting [6]) it was 170 nM; in test [4], 655 nM; in test [2] (setting [7]), 600 nM. Moreover, the “ΔG” value in test [1] (ITC at 25° C.) is -9.2 kcal/mol. Also, the “ΔG (kcal/mol)” value in test [1] (ITC at 298.15 K (25° C.)) is listed as -9.2 (± 0.2) kcal/mol. For the same molecule, the kon in test [1] (read-out: kon (M^-1.s^-1)) worked out at 40000 M⁻¹ s⁻¹.

For the molecule `CC(=O)N(C)[C@@H](CCCNC(=N)N)C(=O)N[C@@H](CCC(N)=O)C(=O)N[C@@H](CC1CCCCC1)C(=O)N(C)[C@@H](CC(=O)O)C(=O)N[C@@H](CC(C)C)C(=O)N[C@@H](Cc1ccc(Cl)c(Cl)c1)C(=O)O` [P37] (Ac-[NMeR]Q[Cha][NMeD]L[Phe(3,4-Cl2)]-OH), the Kd was 92 nM in test [1] (setting [5]); 74 nM in test [1] (setting [6]); 169 nM in test [2] (setting [8]); 120 to 170 nM in test [2] (affinity for these clamps (^PaSC and ^AbSC), range over ^PaSC and ^AbSC).

For `CC(=O)N[C@@H](CCC(N)=O)C(=O)N[C@@H](CC1CCCCC1)C(=O)N[C@@H](CC(=O)O)C(=O)N[C@@H](CC(C)C)C(=O)N1[C@H](C(=O)N[C@@H](Cc2ccc(Cl)c(Cl)c2)C(=O)O)C[C@@H]2CCCC[C@@H]21` [P50] (Ac-Q[Cha]DL[Oic][Phe(3,4-Cl2)]-OH), the “ΔG (kcal mol^-1)” value in test [1] (ITC at 25° C.) is recorded as -10.1 (± 0.2) kcal mol^-1. Further, the Kd in test [1] (setting [5]) came to 39 nM; in test [1] (setting [6]), 39 nM; in test [4], 70 nM; in test [2] (setting [8]), 20 nM. In addition, the kon in test [1] (read-out: kon (M^-1 s^-1)) worked out at 60000 M⁻¹ s⁻¹.

In the case of `CC(=O)N[C@@H](CCC(N)=O)C(=O)N[C@@H](CC1CCCCC1)C(=O)N(C)[C@@H](CC(=O)O)C(=O)N[C@@H](CC(C)C)C(=O)N[C@@H](Cc1ccc(Cl)c(Cl)c1)C(=O)O` [P35] (Ac-Q[Cha][NMeD]L[Phe(3,4-Cl2)]-OH), the Kd turned out to be 41 nM in test [1] (setting [5]) and 140 nM in test [2] (setting [8]). Further, the kon in test [1] (read-out: kon (M^-1 s^-1)) was 270000 M⁻¹ s⁻¹.

For `CCN(C(=O)[C@H](CC1CCCCC1)NC(=O)[C@H](CCC(N)=O)NC(C)=O)[C@@H](CC(=O)O)C(=O)N[C@@H](CC(C)C)C(=O)N[C@@H](Cc1ccccc1)C(=O)O` [P5] (Ac-Q[Cha][NEtAsp]LF-OH), the “ΔG (kcal/mol)” value in test [1] (ITC at 298.15 K (25° C.)) is listed as -8.57 (± 0.07) kcal/mol. Besides, in test [1] (setting [5]), the Kd is 523 nM. In addition, in test [1] (read-out: kon (M^-1.s^-1)), the kon is 28800 M⁻¹ s⁻¹.

On to `COc1ccc(NC(=O)N[C@@H](CCC(N)=O)C(=O)N[C@@H](CC2CCCCC2)C(=O)N[C@@H](CC(=O)O)C(=O)N[C@@H](CC(C)C)C(=O)N[C@@H](Cc2ccccc2)C(=O)O)cc1` [P22] ({NH(4-MeO-phenyl)-CO}-Q[Cha]DLF-OH), for which, in test [1] (setting [5]), the Kd stood at 73 nM. Moreover, the kon in test [1] (read-out: kon (M^-1.s^-1)) was found to be 40000 M⁻¹ s⁻¹.
